Measurements published in patent publication EP0471841A1, “SULFONAMIDE DERIVATIVE AND PHARMACEUTICAL COMPOSITION CONTAINING THE SAME” (Asahi Kasei Kogyo Kabushiki Kaisha, priority 1990, dated 1991).
Where a name gives a salt, the structure may show the parent alone.

Columns and labels:
trachea = experiment: Effect on trachea in vivo: inhibition of histamine-induced tracheal contraction (modified Konzett-Rössler method); settings: Cavia porcellus, iv, 0.05 h; compound 1 mg/kg through the femoral vein, histamine 20 µg/kg through the femoral vein 3 minutes later; anesthetized male guinea pigs; compounds used as hydrochloride; 3 animals per group; read-out: Inhibition of tracheal con-traction
Excerpt: Further, the inhibiting action of the compound of the present invention on the histamine-induced contraction of the trachea of a guinea pig was examined by in vivo experiment. As a result, the in vivo bronchodilation action was confirmed.
According to a modified method of Konzett-Rössler method [see J. Martinez et al, Bronchial Arterial Injections, vol. 33, 295, (1961); Masaaki Takai et al, Oyo Yakuri (Applied Pharmacology), vol. 17, p.345, (1979)], effect of the compounds of the present invention on trachea in vivo was examined. Of compounds 3, 4, 30, 31, 36, 38, 48, 54 and 55, which were used herein, compounds other than acid addition salts were individually subjected to testing in the form of a hydrochloride which was obtained in the same manner as described in Example 61. Urethane was intraperitoneally administered to male guinea pigs weighing 350 to 600 g (Hartley strain, Kuroda Junkei Dobutsu) in an amount of 1.5 g/kg of body weight to anesthetize the animals. Then, cannulae were inserted into the trachea and femoral vein of each animal under urethane anesthesia and fixed. The inserted tracheal cannula was connected to a respirator for small animal (model 1683, manufactured by Harvard Co., Ltd.) and a pneumotachometer (model MHF-1200, manufactured by Nihon Kohden Corp.) through a bottle containing water, the water surface of which was adjusted to a level which is 10 cm high from the bottom, and a respiratory volume was determined.
Each of the above-mentioned compounds of the present invention was administered to guinea pigs through the femoral vein in an amount of 1 mg/kg of body weight. After 3 minutes from the administration, histamine was administered to the same guinea pigs through the femoral vein in an amount of 20 µg/kg of body weight, to thereby induce contraction of trachea and the inhibition of the histamine-induced tracheal contraction by each of the above-described compounds of the present invention was determined. For comparison, the inhibition of histamine-induced tracheal contraction by each of aminophylline, comparative compound (1) and comparative compound (2) was determined in substantially the same manner as described above. As a solvent for each compound, physiological saline was used. The number of the guinea pigs tested in each group was 3.

[1] = system: tracheal specimens excised from guinea pigs; experiment: Inhibitory effect on PGF2α-induced contraction of tracheal specimens excised from guinea pigs (Magnus tube); type: cell-based; settings: Cavia porcellus, dose required for relaxing PGF2α-induced contraction to 50 %; PGF2α final concentration: 1 µm; compounds used as hydrochloride; 3 specimens per group; read-out: PGF2α-induced contraction ED50
Procedure: (§1) The bronchial smooth muscle-relaxing action of the sulfonamide derivative of the present invention was evaluated by the effect on suppression of KCl-induced contraction and PGF2α-induced contraction of bronchial specimens excised from guinea pigs.
Tracheal specimens excised from male guinea pigs weighing 350 to 500 g (Hartley strain, Kuroda Junkei Dobutsu) were contracted in substantially the same manner as in Application Example 1 except that PGF2α (final concentration: 1 µm) was used instead of KCl. After the contraction of the tracheal specimens became stable, each of the compounds (hydrochloride) of the present invention was dissolved in distilled water or physiological saline, and the compound solution was cumulatively added into the Magnus tube in the same manner as in Application Example 1. The relaxing effect of each of the compounds of the present invention on the contracted specimens was evaluated and a dose-response curve was obtained. The dose required for relaxing PGF2α-induced contraction to 50 %, i.e., ED₅₀ was calculated form the dose-response curve. Of compounds 3, 4, 30, 31, 36, 38, 48, 54 and 55, which were imdividually used herein, compounds other than acid addition salts were used in the form of a hydrochloride which was obtained in the same manner as described in Example 61. For comparison, the same procedure as described above was repeated except that aminophylline, comparative compound (1) and comparative compound (2) were individually used instead of the compound of the present invention, to obtain an ED₅₀. The number of specimens in each group was 3.

[2] = system: tracheal specimens excised from guinea pigs; experiment: Inhibitory effect on KCl-induced contraction of tracheal specimens excised from guinea pigs (Magnus tube); type: cell-based; settings: Cavia porcellus; dose required for relaxing KCl-induced contraction to 50 %; final KCl concentration: 20 mM; 37 °C; compounds other than acid addition salts used as hydrochloride; 3 specimens per group; read-out: ED₅₀ Effect on KCl-induced contraction
Procedure: as §1
According to a method in which tracheal specimens excised from guinea pigs were used (Takagi and Ozawa, "Yakubutsugaku Jikken (Experiments in Pharmacology)", pp.100-102, 1960, published by Nanzando Japan; and Fujiwara and Shibata, "Yakurigaku Kiso Jikenho (Methods of Fundamental Experiments in Pharmacology)" pp.131-134, 1982, published by Kyourin, Japan), relaxing effect of sulfonamide derivatives of the present invention on bronchial smooth muscle was examined. Of compounds (1) to (69) shown herein, compounds other than acid addition salts were individually used in the form of a hydrochloride which was obtained by the same method as described in Example 61.
From male guinea pigs weighing 350 to 500 g (Hartley strain, Kuroda Junkei Dobutsu), tracheas were excised and each of the excised tracheal specimens was hung in 20 ml of a Magnus tube filled with Krebs-Henseleit solution under isotonic conditions and the solution temperature was kept at 37 °C. An aqueous KCl solution was dropwise added into the Magnus tube (final KCl concentration: 20 mM) to contract the tracheal specimen. After the KCl-induced contraction became stable, each of the compounds of the present invention was dissolved in distilled water or physiological saline, and the compound solution was cumulatively added into the Magnus tube. The relaxing effect of each of the compounds of the present invention on contracted tracheal specimens was evaluated and a dose-response curve was obtained.
A dose required for relaxing KCl-induced contraction to 50 %, i.e., ED₅₀ was calculated from the dose-response curve. For comparison, the same method as described above was repeated except that aminophylline was used, to thereby determine an ED₅₀. The number of tracheal specimens in each group was 3.

Compound	inhibition in vivo at 1 mg/kg (trachea)	EC50 [1]	EC50 [2]
O=S(=O)(NCCNCc1ccc2c(c1)OCO2)c1cccc2cnccc12 [(3), N-[2(3,4-methylenedioxybenzylamino)ethyl]-5-isoquinolinesulfonamide]	36%	23 µM	5.2 µM
O=S(=O)(NCCNCc1ccc2c(c1)OCO2)c1cccc2c(O)nccc12 [(4), N-[2-(3,4-methylenedioxybenzylamino)ethyl]-1-hydroxy-5-isoquinolinesulfonamide hydrochloride]	25%	5 µM	10 µM
O=S(=O)(NCCN1CCN(Cc2ccc3c(c2)OCO3)CC1)c1cccc2cnccc12 [(30), 1-(5-isoquinolinesulfonylaminoethyl)-4-(3,4-methylenedioxybenzyl)piperazine]		43 µM	16 µM
O=S(=O)(NCCN1CCCN(Cc2ccc3c(c2)OCO3)CC1)c1cccc2cnccc12 [(31), 1-(5-isoquinolinesulfonylaminoethyl)-4-(3,4-methylenedioxybenzyl)homopiperazine]		31 µM	13 µM
O=S(=O)(NCCN1CCCNCC1)c1ccc(Cl)c2ncccc12 [(36), 1-(8-chloro-5-quinolinesulfonylaminoethyl)homopiperazine]		91 µM	43 µM
O=S(=O)(NCCN1CCCN(Cc2ccc3c(c2)OCO3)CC1)c1ccc(Cl)c2ncccc12 [(38), 1-(8-chloro-5-quinolinesulfonylaminoethyl)-4-(3,4-methylenedioxybenzyl)homopiperazine]		74 µM	26 µM
O=S(=O)(NCCN1CCCNCC1)c1cccc2ncccc12 [(44), 1-(5-quinolinesulfonylaminoethyl)homopiperazine]			91 µM
O=S(=O)(NCCN1CCCN(Cc2ccc3c(c2)OCO3)CC1)c1cccc2ncccc12 [(45), 1-(5-quinolinesulfonylaminoethyl)-4-(3,4-methylenedioxybenzyl)homopiperazine]			84 µM
CCOc1ccc(S(=O)(=O)NCCN2CCNCC2)c2cccnc12 [(47), 1-(8-ethoxy-5-quinolinesulfonylaminoethyl) piperazine]			60 µM
CCOc1ccc(S(=O)(=O)NCCN2CCCN(Cc3ccc4c(c3)OCO4)CC2)c2cccnc12 [(48), 1-(8-ethoxy-5-quinolinesulfonylaminoethyl)-4-(3,4-methylenedioxybenzyl)homopiperazine]	33%	82 µM	37 µM
CCOc1ccc(S(=O)(=O)NCCN2CCN(Cc3ccc4c(c3)OCO4)CC2)c2cccnc12 [(49), 1-(8-ethoxy-5-quinolinesulfonylaminoethyl)-4-(3,4-methylenedioxybenzyl)piperazine]			46 µM
CCOc1ccc(S(=O)(=O)NCCN2CCCN(Cc3ccc(Cl)cc3)CC2)c2cccnc12 [(50), 1-(8-ethoxy-5-quinolinesulfonylaminoethyl)-4-(4-chlorobenzyl)homopiperazine]			81 µM
CCOc1ccc(S(=O)(=O)NCCN2CCN(Cc3ccc(Cl)cc3)CC2)c2cccnc12 [(51), 1-(8-ethoxy-5-quinolinesulfonylaminoethyl)-4-(4-chlorobenzyl)piperazine]			85 µM
CCOc1ccc(S(=O)(=O)NCCN2CCCN(CCc3ccc(OC)c(OC)c3)CC2)c2cccnc12 [(52), 1-(8-ethoxy-5-quinolinesulfonylaminoethyl)-4-(3,4-dioxyphenethyl)homopiperazine]			102 µM
CCOc1ccc(S(=O)(=O)NCCN2CCN(CCc3ccc(OC)c(OC)c3)CC2)c2cccnc12 [(53), 1-(8-ethoxy-5-quinolinesulfonylaminoethyl)-4-(3,4-dimethoxyphenethyl)piperazine]			120 µM
O=S(=O)(c1ccc(Cl)c2ncccc12)N1CCCNCC1 [(54), 1-(8-chloro-5-quinolinesulfonyl)homopiperazine]	30%	65 µM	38 µM
CCOc1ccc(S(=O)(=O)N2CCCNCC2)c2cccnc12 [(55), 1-(8-ethoxy-5-quinolinesulfonyl)homopiperazine]	23%	71 µM	45 µM
O=S(=O)(c1ccc(Cl)c2ncccc12)N1CCNCC1 [(56), 1-(8-chloro-5-quinolinesulfonyl)piperazine]			49 µM
CCOc1ccc(S(=O)(=O)N2CCNCC2)c2cccnc12 [(57), 1-(8-ethoxy-5-quinolinesulfonyl)piperazine]			57 µM
O=S(=O)(c1cccc2ncccc12)N1CCCNCC1 [(58), 1-(5-quinolinesulfonyl)homopiperazine]			79 µM
O=S(=O)(c1cccc2ncccc12)N1CCNCC1 [(59), 1-(5-quinolinesulfonyl)piperazine]			90 µM
COc1ccc(CCNC(C)CNS(=O)(=O)c2ccc(Cl)c3ncccc23)cc1OC (centres unmarked) [(60), N-[2-(3,4-dimethoxyphenethylamino)-2-methylethyl]-8-chloro-5-quinolinesulfonamide]			110 µM
Cn1c(=O)c2[nH]cnc2n(C)c1=O [Aminophylline, aminophylline, reference compound]	7%	> 200 µM	
CCCCCCN(CCN)S(=O)(=O)c1cccc2cnccc12 [Comparative compound (1), N-(2-aminoethyl)-N-hexyl-5-isoquinolinesulfonamide hydrochloride, reference compound]	9%	101 µM	
NC1CCCN(S(=O)(=O)c2cccc3cnccc23)C1 (centres unmarked) [Comparative compound (2), 1-(5-isoquinolinesulfonyl)-3-aminopiperidine hydrochloride, reference compound]	12%	93 µM	
O=S(=O)(NCCNCc1ccc2c(c1)OCO2)c1cccc2ncccc12 [Compound (27), N-[2-(3,4-methylenedioxybenzylamino)ethyl]-5-quinolinesulfonamide]			86 µM
CCOc1ccc(S(=O)(=O)NCCN2CCCNCC2)c2cccnc12 [Compound (46), 1-(8-ethoxy-5-quinolinesulfonylaminoethyl) homopiperazine]			51 µM
